We go through 23 compounds from US11572369B2, “Bicyclic pyridine compositions and methods of using the same for cancer therapy” (UNIVERSITY OF SOUTH CAROLINA, priority 2019, dated 2023).

Where two headings read alike, the source gives them in different places. Bounds are passed on as bounds.

One data set in a line: Mouse PK, intravenous. Type of data set: in vivo. To be noted: female FVB mice, i.v. 0.5 mg/kg, mixture; for AUC / C0 / Vd / half-life: mouse, serum, iv. As for the experimental part:
Pharmacokinetics (PK) Assay. To measure mouse pharmacokinetics (PK), thienopyridine derivatives were dissolved in 5% dextrose and administered to female FVB mice at different dosing conditions; blood samples were collected at different time points and compound concentrations in the serum were measured by LC/MS/MS.

The next data set is described as follows: Mouse PK, oral 1 mg/kg. Type of data set: in vivo. Conditions: female, FVB, serum, mice, oral (gavage) 1 mg/kg; for bioavailability: read-out: Bioavailability (F %).
The next data set relates to CDK8/19. Kind of data set: NFκB Activity Assay (NFκB luciferase reporter, parental 293 cells). Type of data set: cell-based. A general note: A reporter such as luciferase makes a cellular process visible.
A short description of another data set: in vivo. Conditions: female, CD-1, mouse, serum, po.
Data set [1] in a line: Oral PK in female CD-1 mice, solution formulation. Conditions: oral gavage in solution, 30 mg/kg (15u series) or 16/18 mg/kg (15w series).
The test system of data set [2] is alkaline phosphatase (ALPase) in bone marrow stromal cell line ST2. Conditions: cited from earlier work; for ALP activity Assay EC200: concentration that enhances ALPase activity to 200% of control, ST2 cells, Saito (2013).
Another data set deals with MV4-11 cells. Kind of data set: MV4-11-Luc proliferation assay. Conditions: Homo sapiens, MV4-11, read-out: Inhibition Potency MV4-11-Luc Assay.
For data set [3] the following is noted: Saito, 2013; cited from earlier work.
The test system of data set [4] is PSA expression in CRPC cell line C4-2. Kind of data set: PSA expression in C4-2 cell culture supernatant. Type of data set: cell-based. Conditions: C4-2 culture supernatant, 4-day treatment, FBS-supplemented regular media, read-out: IC50, suppression of PSA expression. The text has this: CDK8/19 inhibition decreases the expression of certain androgen-receptor (AR) inducible genes including PSA, the most common marker of prostate cancer, and the growth of castration-refractory prostate cancers (CRPC).

In data set [5] the test system is NFκB activation in CDK8/19-deficient cells. Kind of data set: NFκB reporter assay in CDK8/19 double-knockout 293 reporter cells. Conditions: CDK8/19 double-knockout reporter cells.
The test system of data set [6] is 4T1 murine triple-negative breast cancer. Kind of data set: 4T1 TNBC lung metastasis survival after primary tumor removal. Type of data set: in vivo, mouse. Conditions: medicated food (350 ppm) plus one oral dose 50 mg/kg after removal of primary tumor.
The subject of data set [7] is MYC-CAP-CR cells. Kind of data set: Short-term cell proliferation assay, MYC-CAP-CR. Conditions: androgen-containing media. Type of data set: cell-based, murine.
A further data set concerns MYC-CaP-CR tumors. Kind of data set: MYC-CaP-CR subcutaneous tumors in intact FVB male mice. Type of data set: in vivo, mouse. To be noted: intact (uncastrated) FVB male mice.
Data set [8] concerns MYC-CAP-CR cells. Kind of data set: Long-term clonogenic assay, MYC-CaP-CR. Type of data set: cell-based, murine.
Where [9] appears, read: read-out: Inhibition Potency HEK293-NFkB-Luc Assay, read-out: Inhibition Potency HEK238-NFkB-Luc Assay.
[10] abbreviates: parental 293-derived reporter cell line, read-out: NFκB activity Assay IC50.

As usually defined, the AUC is the area under the concentration-time curve, a measure of exposure. In general, Vd refers to the apparent volume that relates the amount in the body to the concentration in plasma or blood. The term half-life denotes how long it takes for the measured level to halve. The Cmax is the highest concentration seen after dosing. As usually defined, the bioavailability is the share of a dose that reaches the circulation, judged against a reference dose that is usually intravenous. Take `CNC(=O)c1ccc(N2CCCN(c3ccnc4sc(C(N)=O)c(N)c34)CC2)cc1` [15v]: in “Mouse PK, intravenous”, the Elimination rate came to 4.33 h⁻¹, the AUC stood at 61.2 ng·h/mL, the C0 came to 234 ng/mL and the distribution volume (Vd) turned out to be 2.14 L/kg. In the data set “Mouse PK, intravenous”, the half-life was 9.6 min. Also, in the data set “Mouse PK, oral 1 mg/kg”, the exposure (AUC) turned out to be 21.8 ng·h/mL, the Cmax was found to be 7.2 ng/mL, the half-life is 72 min and the bioavailability came out at 18%. Further, in the data set with CDK8/19 (setting [9]), the IC50 stood at 23.1 nM.

As usually defined, the AUC(0-t) is the area under the concentration-time curve up to a stated or last time point. Turning to `[2H]C([2H])(C(=O)N(C)C)c1ccc(N2CCCN(c3ccnc4sc(C(N)=O)c(N)c34)CC2)cc1` [15w_D2, 3-amino-4-(4-(4-(2-(dimethylamino)-2-oxoethyl-1,1-d2)phenyl)-1,4-diazepan-1-yl)thieno[2,3-b]pyridine-2-carboxamide], the exposure AUC(0-t) in the data set “in vivo” (18 mg/kg) came to 380 ng·h/mL. The “PK (AUC 0-8 h) versus undeuterated parent” value in data set [1] is on record as “did not improve the PK”. For the same compound, the IC50 with CDK8/19 (setting [9]) worked out at 8.8 nM.

For the compound `NC(=O)c1sc2nccc(N3CCCN(c4ccccc4)CC3)c2c1N` [15k], in “Mouse PK, intravenous”, the Elimination rate stood at 4.59 h⁻¹, the AUC turned out to be 40.8 ng·h/mL, the C0 turned out to be 168 ng/mL and the Vd turned out to be 2.98 L/kg. The half-life in “Mouse PK, intravenous” was 9 min. In addition, in “Mouse PK, oral 1 mg/kg”, the AUC was 7.6 ng·h/mL, the half-life is 18 min and the bioavailability came to 9%.

With `Cc1ccc(N2CCCN(c3ccnc4sc(C(N)=O)c(N)c34)CC2)cc1` [15n], in data set [2], the “ALP activity Assay EC200” value is given as 88.1 nM. In addition, the IC50 in the data set on CDK8/19 (setting [10]) came out at 37.8 nM.

Take `CN(C)C(=O)c1ccc(CN2CCCN(c3ccnc4sc(C(N)=O)c(N)c34)CC2)cc1` [compound 6269]: the IC50 was 683 nM in the data set with MV4-11 cells and 1000 nM with CDK8/19 (setting [9]).

Turning to `CN(C)C(=O)c1ccc(N2CCCN(c3ccnc4[nH]c(C(N)=O)c(N)c34)CC2)cc1` [compound 6307], in the data set with CDK8/19 (setting [9]), the IC50 is > 1000 nM.

For the compound `CN(C)C(=O)Cc1ccc(N2CCCN(c3ccnc4sc(C(N)=O)c(N)c34)CC2)cc1` [15w, 3-amino-4-(4-(4-(2-(dimethylamino)-2-oxoethyl)phenyl)-1,4-diazepan-1-yl)thieno[2,3-b]pyridine-2-carboxamide], in [3], the pharmacokinetics entry is listed as “poor pharmacokinetics (PK) with low Cmax”. In addition, in the data set “Mouse PK, oral 1 mg/kg”, the AUC came to 29.2 ng·h/mL and the half-life is 18 min. The AUC(0-t) in the data set “in vivo” (16 mg/kg) was 400 ng·h/mL. In addition, the “bone anabolic activity in a cell-based assay” value in data set [2] (Saito, 2013) is recorded as “highest bone anabolic activity”. Moreover, in data set [2], the “ALP activity Assay EC200” value is listed as 6.6 nM. Also, the IC50 in data set [4] (96 h) came to 15.7 nM. The “effect on NFκB activation in CDK8/19-deficient cells” value in [5] was “no effect”. The IC50 in the data set with CDK8/19 (setting [9]) is 4.1 nM.

On to `CN(C)C(=O)c1ccc(N2CCCN(c3ccnc4sc(C(N)=O)cc34)CC2)cc1` [compound 6296], for which the IC50 in the data set on CDK8/19 (setting [9]) was > 1000 nM.

`CN(C)C(=O)c1ccc(N2CCCN(c3ccnc4oc(C(N)=O)c(N)c34)CC2)cc1` [compound 6318]: the IC50 in the data set with CDK8/19 (setting [9]) was > 1000 nM.

In the case of `CN1CCN(C(=O)c2ccc(N3CCCN(c4ccnc5sc(C(N)=O)c(N)c45)CC3)cc2)CC1` [compound 6268], the values for the IC50 in the data set with MV4-11 cells and in the data set on CDK8/19 (setting [9]) were 42 nM and 31 nM, respectively.

In the case of `CN(CCCNC(=O)OC(C)(C)C)C(=O)c1ccc(N2CCCN(c3ccnc4sc(C(N)=O)c(N)c34)CC2)cc1` [compound 6292], the IC50 in the data set with CDK8/19 (setting [9]) amounted to 594 nM.

For `CN(CCCN)C(=O)c1ccc(N2CCCN(c3ccnc4sc(C(N)=O)c(N)c34)CC2)cc1` [compound 6293], the IC50 in the data set with CDK8/19 (setting [9]) is 50 nM.

Take `NC(=O)c1sc2nccc(N3CCCN(c4ccc(C(=O)N5CCNCC5)cc4)CC3)c2c1N` [compound 6271]: the figures for the IC50 with MV4-11 cells and in the data set on CDK8/19 (setting [9]) were 79 nM and 233 nM, respectively.

Compound `Cc1cc(N2CCCN(c3ccc(C(=O)N(C)C)cc3)CC2)c2c(N)c(C(N)=O)sc2n1` [compound 6304, 3-amino-4-(4-(4-(dimethylcarbamoyl)phenyl)-1,4-diazepan-1-yl)-6-methylthieno[2,3-b]pyridine-2-carboxamide] had an area under the curve AUC(0-t) in “in vivo” (16 mg/kg) of 2200 ng·h/mL. Further, the IC50 with CDK8/19 (setting [9]) turned out to be 13.6 nM.

In turn, `CN(CCCO)C(=O)c1ccc(N2CCCN(c3ccnc4sc(C(N)=O)c(N)c34)CC2)cc1` [compound 6264, 3-amino-4-(4-(4-((3-hydroxypropyl)(methyl)carbamoyl)phenyl)-1,4-diazepan-1-yl)thieno[2,3-b]pyridine-2-carboxamide] showed an AUC(0-t) in “in vivo” (25 mg/kg) of 470 ng·h/mL. The IC50 with MV4-11 cells was 31 nM; with CDK8/19 (setting [9]), 37 nM.

`CN(C)C(=O)c1ccc(N2CCCN(c3ccnc4[nH]c(C(N)=O)cc34)CC2)cc1` [compound 6284]: the IC50 with CDK8/19 (setting [9]) is > 1000 nM.

For the compound `CN1CCN(C(=O)c2ccc3cc(CCNc4ncnc5ccc(C#N)cc45)ccc3c2)CC1` [Senexin B, reference compound], in [6], the “mouse survival of the metastatic disease” value is on record as “statistically significant but moderate increase in survival”. The MYC-CAP-CR cell growth entry in the data set with MYC-CAP-CR cells [7] is “little effect”. For the same compound, in [4], the IC50 came out at 255 nM.

With `CN(C)C(=O)c1ccc(N2CCCN(c3ccnc4sc(C#N)c(N)c34)CC2)cc1` [compound 6298], the IC50 with CDK8/19 (setting [9]) is 379 nM.

In the case of `CN1CCN(Cc2ccc(N3CCCN(c4ccnc5sc(C(N)=O)c(N)c45)CC3)cc2)CC1` [compound 6300, 3-amino-4-(4-(4-((4-methylpiperazin-1-yl)methyl)phenyl)-1,4-diazepan-1-yl)thieno[2,3-b]pyridine-2-carboxamide], the exposure AUC(0-t) in the data set “in vivo” (30 mg/kg) is 210 ng·h/mL. For the same compound, the IC50 in the data set on CDK8/19 (setting [9]) came out at 4.9 nM.

For the compound `COc1ccc(N2CCCN(c3ccnc4sc(C(N)=O)c(N)c34)CC2)cc1` [15q], the “ALP activity Assay EC200” value in [2] is 115.4 nM. In the data set with CDK8/19 (setting [10]), the IC50 was 43.1 nM.

As for `NC(=O)c1sc2nccc(N3CCCN(c4ccc(C(=O)NCCCO)cc4)CC3)c2c1N` [compound 6263], the IC50 stood at 83 nM in the data set on MV4-11 cells and 169 nM with CDK8/19 (setting [9]).

In “in vivo” (16 mg/kg), `[2H]C([2H])([2H])N(C(=O)Cc1ccc(N2CCCN(c3ccnc4sc(C(N)=O)c(N)c34)CC2)cc1)C([2H])([2H])[2H]` [15w_D6, 3-amino-4-(4-(4-(2-(bis(methyl-d3)amino)-2-oxoethyl)phenyl)-1,4-diazepan-1-yl)thieno[2,3-b]pyridine-2-carboxamide] showed an AUC(0-t) of 770 ng·h/mL. For the same compound, the “PK (AUC 0-8 h) versus undeuterated parent” value in [1] is recorded as “much improved the PK”. Besides, the IC50 in the data set on CDK8/19 (setting [9]) turned out to be 3.8 nM.

Consider `CNC(=O)c1ccc(N2C(=S)N(c3ccc(C#N)c(C(F)(F)F)c3)C(=O)C2(C)C)cc1F` [enzalutamide], for which the “tumor volume and weight” value with MYC-CaP-CR tumors was “modest effect”. For the same compound, the MYC-CaP-CR colony formation result in the data set on MYC-CAP-CR cells [8] is listed as “decreased MYC-CaP-CR colony formation”. Moreover, the MYC-CAP-CR cell growth result in the data set with MYC-CAP-CR cells [7] is recorded as “paradoxically stimulated the growth”.
